Values quoted from earlier work as cited in PMC9516332 (Frontiers in Oncology, 2022).
Read-outs that look alike come from different tables or passages of the source.

Key:
Conditions in all cases: cited from earlier work
[1] = molecular target: T1, panel of 255 wild-type kinases (Homo sapiens, UniProt P43403)
T1 sequence (P43403 1-619): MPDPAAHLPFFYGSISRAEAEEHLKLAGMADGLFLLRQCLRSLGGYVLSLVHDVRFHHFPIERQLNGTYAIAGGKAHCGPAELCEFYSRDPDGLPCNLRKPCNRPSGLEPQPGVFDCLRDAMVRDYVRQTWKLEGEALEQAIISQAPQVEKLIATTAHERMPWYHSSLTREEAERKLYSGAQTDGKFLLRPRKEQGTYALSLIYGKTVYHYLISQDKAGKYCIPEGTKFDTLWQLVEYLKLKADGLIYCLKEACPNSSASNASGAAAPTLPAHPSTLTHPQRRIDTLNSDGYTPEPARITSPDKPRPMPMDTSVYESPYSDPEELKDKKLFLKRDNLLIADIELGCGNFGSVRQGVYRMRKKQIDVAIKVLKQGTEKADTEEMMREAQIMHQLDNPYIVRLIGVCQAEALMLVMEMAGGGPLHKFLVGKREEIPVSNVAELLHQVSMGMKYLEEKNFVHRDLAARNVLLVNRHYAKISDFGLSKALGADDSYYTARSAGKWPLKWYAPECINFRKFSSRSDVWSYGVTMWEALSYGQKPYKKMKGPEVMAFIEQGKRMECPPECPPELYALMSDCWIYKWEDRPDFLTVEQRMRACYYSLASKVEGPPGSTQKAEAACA

[2] = molecular target: T2, panel of 255 wild-type kinases (Homo sapiens, UniProt P42680)
T2 sequence (P42680 1-631): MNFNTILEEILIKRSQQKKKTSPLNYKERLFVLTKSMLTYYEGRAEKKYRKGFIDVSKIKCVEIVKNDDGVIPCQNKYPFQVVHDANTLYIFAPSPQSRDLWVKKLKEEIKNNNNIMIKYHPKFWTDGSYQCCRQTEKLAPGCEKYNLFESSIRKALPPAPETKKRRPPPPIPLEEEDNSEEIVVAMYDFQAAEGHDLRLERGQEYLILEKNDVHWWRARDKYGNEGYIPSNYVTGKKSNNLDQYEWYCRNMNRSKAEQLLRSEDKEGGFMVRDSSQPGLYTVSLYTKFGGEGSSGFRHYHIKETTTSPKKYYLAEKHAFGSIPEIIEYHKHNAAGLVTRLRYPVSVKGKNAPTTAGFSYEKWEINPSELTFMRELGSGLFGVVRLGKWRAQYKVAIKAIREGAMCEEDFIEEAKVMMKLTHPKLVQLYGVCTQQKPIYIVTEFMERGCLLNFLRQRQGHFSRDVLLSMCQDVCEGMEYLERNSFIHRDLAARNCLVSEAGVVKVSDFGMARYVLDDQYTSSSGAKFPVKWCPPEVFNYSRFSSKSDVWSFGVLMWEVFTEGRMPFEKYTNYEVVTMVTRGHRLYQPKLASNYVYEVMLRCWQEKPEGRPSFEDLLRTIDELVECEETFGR

[3] = molecular target: panel of 255 wild-type kinases (Homo sapiens, UniProt P29376)
[4] = molecular target: T3, panel of 255 wild-type kinases (Homo sapiens, UniProt P42681)
T3 sequence (P42681 1-527): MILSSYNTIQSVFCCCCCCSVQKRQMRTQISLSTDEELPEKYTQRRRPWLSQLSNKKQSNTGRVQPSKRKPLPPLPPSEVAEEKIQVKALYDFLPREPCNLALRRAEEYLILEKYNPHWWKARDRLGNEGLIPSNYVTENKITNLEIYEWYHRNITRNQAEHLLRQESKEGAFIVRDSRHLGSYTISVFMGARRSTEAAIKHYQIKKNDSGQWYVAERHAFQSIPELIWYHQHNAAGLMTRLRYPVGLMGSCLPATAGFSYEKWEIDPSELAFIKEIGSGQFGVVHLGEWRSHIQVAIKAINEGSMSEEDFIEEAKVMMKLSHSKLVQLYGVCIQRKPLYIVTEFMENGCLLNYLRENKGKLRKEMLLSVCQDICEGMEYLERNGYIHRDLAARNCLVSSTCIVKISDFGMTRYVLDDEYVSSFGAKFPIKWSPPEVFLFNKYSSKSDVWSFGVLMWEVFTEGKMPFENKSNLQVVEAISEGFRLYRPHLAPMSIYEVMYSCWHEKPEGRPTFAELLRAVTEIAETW

[5] = molecular target: T4, panel of 255 wild-type kinases (Homo sapiens, UniProt P41743)
T4 sequence (P41743 1-596): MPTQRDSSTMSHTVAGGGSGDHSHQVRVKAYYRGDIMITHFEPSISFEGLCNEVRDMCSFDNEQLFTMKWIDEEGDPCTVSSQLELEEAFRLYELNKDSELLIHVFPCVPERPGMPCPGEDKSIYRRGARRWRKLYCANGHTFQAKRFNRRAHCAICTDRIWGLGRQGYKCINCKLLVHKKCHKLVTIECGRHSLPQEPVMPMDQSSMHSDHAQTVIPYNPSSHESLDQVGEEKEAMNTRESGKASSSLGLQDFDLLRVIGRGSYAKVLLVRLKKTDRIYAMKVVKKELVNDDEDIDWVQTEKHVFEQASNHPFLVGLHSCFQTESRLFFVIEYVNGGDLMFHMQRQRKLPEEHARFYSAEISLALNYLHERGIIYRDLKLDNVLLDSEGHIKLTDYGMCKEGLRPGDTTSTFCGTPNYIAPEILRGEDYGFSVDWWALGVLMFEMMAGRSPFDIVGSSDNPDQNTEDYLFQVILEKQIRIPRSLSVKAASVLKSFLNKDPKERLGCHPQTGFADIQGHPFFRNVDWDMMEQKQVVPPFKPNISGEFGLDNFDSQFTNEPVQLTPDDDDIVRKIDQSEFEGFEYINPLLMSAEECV

[6] = kinase ZAP70, 1 µmol/L single concentration, ref DOI: 10.1158/1535-7163.MCT-18-0877
[7] = kinase TEC, 1 µmol/L single concentration, ref DOI: 10.1158/1535-7163.MCT-18-0877
[8] = kinase LTK, 1 µmol/L single concentration, ref DOI: 10.1158/1535-7163.MCT-18-0877
[9] = kinase TXK, 1 µmol/L single concentration, ref DOI: 10.1158/1535-7163.MCT-18-0877
[10] = kinase PKCι, 1 µmol/L single concentration, ref DOI: 10.1158/1535-7163.MCT-18-0877
[11] = kinase ZAP70, 1 µmol/L single concentration, ref DOI: 10.1371/journal.pone.0092146
[12] = kinase TEC, 1 µmol/L single concentration, ref DOI: 10.1371/journal.pone.0092146
[13] = kinase LTK, 1 µmol/L single concentration, ref DOI: 10.1371/journal.pone.0092146
[14] = kinase TXK, 1 µmol/L single concentration, ref DOI: 10.1371/journal.pone.0092146
[15] = kinase PKCι, 1 µmol/L single concentration, ref DOI: 10.1371/journal.pone.0092146

| Compound | %-inhibition at 1 µmol/L, ZAP70 [1, 6] [%] | %-inhibition at 1 µmol/L, TEC [2, 7] [%] | %-inhibition at 1 µmol/L, LTK [3, 8] [%] | %-inhibition at 1 µmol/L, TXK [4, 9] [%] | %-inhibition at 1 µmol/L, PKCι [5, 10] [%] | %-inhibition at 1 µmol/L, ZAP70 [1, 11] [%] | %-inhibition at 1 µmol/L, TEC [2, 12] [%] | %-inhibition at 1 µmol/L, LTK [3, 13] [%] | %-inhibition at 1 µmol/L, TXK [4, 14] [%] | %-inhibition at 1 µmol/L, PKCι [5, 15] [%] | also measured |
| --- | --- | --- | --- | --- | --- | --- | --- | --- | --- | --- | --- |
| CC#CC(=O)N1CCC[C@H]1c1nc(-c2ccc(C(=O)Nc3ccccn3)cc2)c2c(N)nccn12 [acalabrutinib] | -1.53 | 96 | 10 | 68 | -8 | – | – | – | – | – | – |
| CCc1cc2c(cc1N1CCC(N3CCOCC3)CC1)C(C)(C)c1[nH]c3cc(C#N)ccc3c1C2=O [alectinib] | 1.18 | 1.06 | 99 | 2.46 | 11 | – | – | – | – | – | – |
| COc1cc(N2CCC(N3CCN(C)CC3)CC2)ccc1Nc1ncc(Cl)c(Nc2ccccc2P(C)(C)=O)n1 [brigatinib] | – | – | – | – | – | – | – | – | – | – | %-inhibition at 1 µmol/L, ZAP70 [1]: 74%; %-inhibition at 1 µmol/L, TEC [2]: 40%; %-inhibition at 1 µmol/L, LTK [3]: 100%; %-inhibition at 1 µmol/L, TXK [4]: 76%; %-inhibition at 1 µmol/L, PKCι [5]: -38% |
| Cc1cc(Nc2ncc(Cl)c(Nc3ccccc3S(=O)(=O)C(C)C)n2)c(OC(C)C)cc1C1CCNCC1 [ceritinib] | 10 | -8 | 100 | 1.15 | 25 | – | – | – | – | – | – |
| O=C(c1ccc(F)c(F)c1Nc1ccc(I)cc1F)N1CC(O)([C@@H]2CCCCN2)C1 [cobimetinib] | -3 | -1 | 2.85 | 0.165 | 2.45 | – | – | – | – | – | – |
| C[C@@H](Oc1cc(-c2cnn(C3CCNCC3)c2)cnc1N)c1c(Cl)ccc(F)c1Cl [crizotinib] | – | – | – | – | – | 21 | 1.53 | 102 | 39 | -5 | – |
| CC(C)(C)c1nc(-c2cccc(NS(=O)(=O)c3c(F)cccc3F)c2F)c(-c2ccnc(N)n2)s1 [dabrafenib] | – | – | – | – | – | 3.47 | 38 | 2.67 | 18 | 14 | – |
| C=CC(=O)N1CCC[C@@H](n2nc(-c3ccc(Oc4ccccc4)cc3)c3c(N)ncnc32)C1 [ibrutinib] | -4.51 | 92 | 2.76 | 98 | 2.23 | – | – | – | – | – | – |
| CO[C@@H]1[C@H](N(C)C(=O)c2ccccc2)C[C@H]2O[C@]1(C)n1c3ccccc3c3c4c(c5c6ccccc6n2c5c31)C(=O)NC4 [midostaurin] | 94 | 58 | 90 | 25 | 3 | – | – | – | – | – | – |
| C=CC(=O)Nc1cc(Nc2nccc(-c3cn(C)c4ccccc34)n2)c(OC)cc1N(C)CCN(C)C [osimertinib] | 18 | 86 | 97 | 82 | 20 | – | – | – | – | – | – |
| CC(=O)Nc1cccc(-n2c(=O)n(C3CC3)c(=O)c3c(Nc4ccc(I)cc4F)n(C)c(=O)c(C)c32)c1 [trametinib] | – | – | – | – | – | -3 | -7.53 | -7 | -4.66 | 9 | – |
| CCCS(=O)(=O)Nc1ccc(F)c(C(=O)c2c[nH]c3ncc(-c4ccc(Cl)cc4)cc23)c1F [vemurafenib] | – | – | – | – | – | 6 | -0.191 | 2.6 | 5 | -16 | – |
